Laboratory results as given in article PMC9569649, “Naked and Decorated Nanoparticles Containing H2S-Releasing Doxorubicin: Preparation, Characterization and Assessment of Their Antitumoral Efficiency on Various Resistant Tumor Cells” (International Journal of Molecular Sciences, 2022).
Values after ≈ are worked out from the molar mass of the structure shown. Where a name gives a salt, the structure may show the parent alone. Read-outs that look alike come from different tables or passages of the source.

Columns and labels:
[1] = H2S-DOXO stability in solvents (RP-HPLC); assay type: physicochemical; conditions: 30-day storage at 4 °C, vs t0 (100%)
Method: The chemical stability of H2S-DOXO in water/acetonitrile 60/40 v/v (mobile phase for HPLC analysis) and in methanol (solvent used for extraction from NPs to determining EE%) was tested by RP-HPLC after 30-day storage (t30). In Table 2, the stability was expressed as a percentage of residual concentration at t30 compared with the concentration at t0 (100%).
H2S-DOXO stability in water/acetonitrile (60/40 v/v ratio) and methanol was determined after 30-day (t30) storage at 4 °C following the drug concentration over time by RP-HPLC and comparing it with the concentration at t0, assuming it as 100%.

K7M2 cells [2] = assay: Cell viability (ATPLite); assay type: cell-based, murine; conditions: K7M2 (resistant); 72 h, 5 µM
Method: (§1) In each of the following experimental sets, cells were incubated with specific dilutions of NPs to reach a final concentration of 5 μM H2S-DOXO, or with 5 μM DOXO or H2S-DOXO, as reference. Samples under study were: free DOXO, free H2S-DOXO, NP-H2S-DOXO 3% PVP, and HA-NP-CTAB-H2S-DOXO. Viability. 1 × 10^5 cells were seeded in 96 well plates and incubated for 72 h with DOXO, H2S-DOXO or the different NPs. Cell viability was evaluated using the ATPLite kit (PerkinElmer, Waltham, MA), as per manufacturer’s instructions, using a Synergy-HTX 96-well reader (Bio-Tek Instruments, Winooski, VT). The relative luminescence units (RLUs) of the untreated cells were considered 100%; the RLUs of the other experimental conditions were expressed as percentage versus untreated cells.

JC cells [3] = assay: Cell viability (ATPLite); assay type: cell-based, murine; conditions: JC (resistant); 72 h, 5 µM
Method: as §1

[4] = H2S-DOXO stability in the presence of microemulsion ingredients (RP-HPLC); assay type: physicochemical; conditions: water/acetonitrile 60/40 v/v; for Residual Concentration % t24: 24 h
Method: The chemical stability of H2S-DOXO in water/acetonitrile 60/40 v/v in the presence of µE ingredients, at the same ratio (w/w) used in the µE, was tested to select the suitable ingredients and to ensure the integrity of H2S-DOXO into the formulation. In Table 3, the stability at t0 and t24 h (t24) is expressed as percent of residual concentration in the presence of ingredients compared with that without ingredients at t0 (100%).
H2S-DOXO stability in water/acetonitrile (60/40 v/v ratio) in the presence of NaTC, NaGC, lecithin (phosphatidylcoline 95–98%), ST, CTAB, and Cremophor®RH60 was determined at t0 and after 24 h (t24) by RP-HPLC comparing the drug concentration with that in water/acetonitrile solution at t0, assuming it as 100%.

[5] = parameters: method as in PMID 23973213; conditions: human serum; pseudo-first-order kinetics; cited from earlier work
DU-145 cells = conditions: cited from earlier work
[6] = In vitro drug release (dialysis method); assay type: physicochemical; conditions: PBS pH 7.4, 37 °C, reference: 20% propylene glycol aqueous solution
Method: In vitro drug release. Release of H2S-DOXO from NPs was evaluated using the dialysis method. An aliquot of HA-NP-CTAB-H2S-DOXO was placed in a dialysis bag, and the dialysis bag, sealed at the ends, was immersed into 40 mL of phosphate buffered saline (PBS, pH 7.4) at 37 °C stirring at 100 rpm. At predetermined time intervals, 1 mL PBS was withdrawn and replaced with an equal volume of fresh PBS. Release was monitored for 5 h. The overtime released H2S-DOXO was analyzed by RP-HPLC. As a reference, a 20% propylene glycol aqueous solution of H2S-DOXO was used.

MDA-MB-231 cells [7] = assay: Cell viability (ATPLite); assay type: cell-based, human; conditions: MDA-MB-231 (resistant); 72 h, 5 µM
Method: as §1

U-2OS cells [8] = assay: Cell viability (ATPLite); assay type: cell-based, human; conditions: U-2OS (sensitive); 72 h, 5 µM
Method: as §1

U-2OS/DX580 cells [9] = assay: Cell viability (ATPLite); assay type: cell-based, human; conditions: U-2OS/DX580 (resistant); 72 h, 5 µM
Method: as §1

MCF-7 cells [10] = assay: Cell viability (ATPLite); assay type: cell-based, human; conditions: MCF-7 (sensitive); 72 h, 5 µM
Method: as §1

MDA-MB-231 cells [11] = assay: Acute cytotoxicity (release of LDH); assay type: cell-based, human; conditions: MDA-MB-231 (resistant); 24 h, 5 µM
Method: (§2) In each of the following experimental sets, cells were incubated with specific dilutions of NPs to reach a final concentration of 5 μM H2S-DOXO, or with 5 μM DOXO or H2S-DOXO, as reference. Samples under study were: free DOXO, free H2S-DOXO, NP-H2S-DOXO 3% PVP, and HA-NP-CTAB-H2S-DOXO. Acute cytotoxicity. Culture medium from 2 × 10^6 cellule was centrifuged at 12,000 g for 15 min to pellet cell debris, while cells were washed with PBS twice, detached with trypsin/EDTA (0.05/0.02% v/v), rinsed in 0.2 mL of 82.3 mM triethanolamine phosphate-HCl (pH 7.6), and sonicated in ice with 10 s (100 W, Sonicator Labsonic); 5 μL of cell lysate was used to measure the intracellular protein content (BCA1 kit). The activity of extracellular lactate dehydrogenase (LDH), considered as an index of DOXO acute cell damage, was measured on 50 μL of cell culture medium, incubated at 37 °C with […]. The same assay was performed on 5 μL of cell lysate, to measure intracellular LDH. The kinetics of NADH oxidation was followed for 6 min measuring the absorbance at 340 nm with a Synergy HTX 96-well reader (Bio-Tek Instruments). The kinetics was linear overtime. Results were expressed as % extracellular LDH/total (extracellular+intracellular) LDH.

U-2OS cells [12] = assay: Acute cytotoxicity (release of LDH); assay type: cell-based, human; conditions: U-2OS (sensitive); 24 h, 5 µM
Method: as §2

U-2OS/DX580 cells [13] = assay: Acute cytotoxicity (release of LDH); assay type: cell-based, human; conditions: U-2OS/DX580 (resistant); 24 h, 5 µM
Method: as §2

MCF-7 cells [14] = assay: Acute cytotoxicity (release of LDH); assay type: cell-based, human; conditions: MCF-7 (sensitive); 24 h, 5 µM
Method: as §2

[15] = system: DU-145 prostate cancer cell line; parameters: method as in PMID 29607467; conditions: androgen-independent, DOXO-resistant DU-145; cited from earlier work
[16] = H2S-DOXO solubility in aqueous and organic solvent; assay type: physicochemical; conditions: room temperature (22–23 °C)
Method: The solubility of H2S-DOXO in water/acetonitrile (60/40 v/v ratio), methanol, 0.1 M pH 7.2 phosphate buffer, propylene glycol, and benzyl alcohol was determined as follows: an excess of H2S-DOXO was added to the organic or aqueous solution (1 mL); after 2-h equilibration at room temperature (22–23 °C) in a sealed vial under 600 rpm magnetic stirring, the suspension was centrifuged at 1397× g for 10 min, and the supernatant solution analyzed by RP-HPLC. The time needed to reach equilibrium solubility was determined by analyzing samples of the equilibrating solution at different time points to establish constant drug solubility.

K7M2 cells [17] = assay: Acute cytotoxicity (release of LDH); assay type: cell-based, murine; conditions: K7M2 (resistant); 24 h, 5 µM
Method: as §2

JC cells [18] = assay: Acute cytotoxicity (release of LDH); assay type: cell-based, murine; conditions: JC (resistant); 24 h, 5 µM
Method: as §2

K7M2 tumor = system: K7M2 tumor; parameters: method as in PMID 31047947; conditions: cited from earlier work
[19] = 3-week injection, nude mice with subcutaneous DU-145 cells

Compound: COc1cccc2c1C(=O)c1c(O)c3c(c(O)c1C2=O)C[C@@](O)(C(=O)COC(=O)c1ccc(-c2ssc(=S)c2-c2ccccc2)cc1)C[C@@H]3O[C@H]1C[C@H](N)[C@H](O)[C@H](C)O1 [H2S-DOXO, doxorubicin 14-[4-(4-phenyl-5-thioxo-5H-[1,2]dithiol-3-yl)]-benzoate]
- Residual Concentration % t30 ([1]; methanol): 98.7%
- Residual Concentration % t30 ([1]; water/acetonitrile (60/40 v/v)): 97.3%
- subacute toxicity, reduced cell viability (K7M2 cells [2]): significantly more effective than DOXO
- subacute toxicity, reduced cell viability (JC cells [3]): significantly more effective than DOXO
- Residual Concentration % t24 ([4]; in presence of CTAB): 100%
- Residual Concentration % t0 ([4]; in presence of CTAB): 100%
- Residual Concentration % t24 ([4]; in presence of Cremophor RH60): 0%
- Residual Concentration % t0 ([4]; in presence of Cremophor RH60): 5%
- Residual Concentration % t24 ([4]; in presence of Epikuron 200): 100%
- Residual Concentration % t0 ([4]; in presence of Epikuron 200): 100%
- Residual Concentration % t24 ([4]; in presence of NaGC): 98%
- Residual Concentration % t0 ([4]; in presence of NaGC): 100%
- Residual Concentration % t24 ([4]; in presence of NaTC): 0%
- Residual Concentration % t0 ([4]; in presence of NaTC): 34%
- Residual Concentration % t24 ([4]; in presence of ST): 14%
- Residual Concentration % t0 ([4]; in presence of ST): 44%
- t1/2 of hydrolysis [5]: 2.8 h
- percentage of apoptotic cells (DU-145 cells; [19]): an increase in the percentage of apoptotic cells
- reduction in tumor volume (DU-145 cells; [19]): 60%
- tolerability / safety profile (DU-145 cells; nude mice with subcutaneous DU-145 cells): well tolerated and had a better safety profile
- H2S-DOXO release in 5 h [6]: ~100%
- subacute toxicity, reduced cell viability (MDA-MB-231 cells [7]): significantly more effective than DOXO
- subacute toxicity, reduced cell viability (U-2OS cells [8]): did not offer any further advantage compared to DOXO
- subacute toxicity, reduced cell viability (U-2OS/DX580 cells [9]): significantly more effective than DOXO
- subacute toxicity, reduced cell viability (MCF-7 cells [10]): did not offer any further advantage compared to DOXO
- acute toxicity, release of LDH (MDA-MB-231 cells [11]): induced a significant release of LDH
- acute toxicity, release of LDH (U-2OS cells [12]): comparable
- acute toxicity, release of LDH (U-2OS/DX580 cells [13]): induced a significant release of LDH
- acute toxicity, release of LDH (MCF-7 cells [14]): comparable
- cytotoxicity [15]: high cytotoxicity
- intracellular accumulation [15]: good intracellular accumulation
- Solubility ([16]; benzyl alcohol): 1400 ± 700 µg/mL (≈ 1.64 mM)
- Solubility ([16]; methanol): 3820 ± 300 µg/mL (≈ 4.46 mM)
- Solubility ([16]; pH 7.2 phosphate buffer (0.1 M)): 30 ± 10 µg/mL (≈ 0.035 mM)
- Solubility ([16]; propylene glycol): 2830 ± 300 µg/mL (≈ 3.31 mM)
- Solubility ([16]; water/acetonitrile (60/40 v/v)): 3400 ± 500 µg/mL (≈ 3.97 mM)
- acute toxicity, release of LDH (K7M2 cells [17]): induced a significant release of LDH
- acute toxicity, release of LDH (JC cells [18]): induced a significant release of LDH

Compound: COc1cccc2c1C(=O)c1c(O)c3c(c(O)c1C2=O)C[C@@](O)(C(=O)CO)C[C@@H]3O[C@H]1C[C@H](N)[C@H](O)[C@H](C)O1 [DOXO, doxorubicin hydrochloride]
- subacute toxicity, reduced cell viability (K7M2 cells [2]): ineffective
- subacute toxicity, reduced cell viability (JC cells [3]): ineffective
- tumor growth (K7M2 tumor; K7M2 tumors (CD44- and Pgp-overexpressing)): neither DOXO nor Caelyx® reduced the growth of these tumors
- apoptosis / caspase-3 activation in the tumor (K7M2 tumor; K7M2 tumors): nor did they induce apoptosis in the tumor
- tolerability / safety profile (DU-145 cells; mouse, in vivo, sc): associated with weight loss and cardiotoxicity
- subacute toxicity, reduced cell viability (MDA-MB-231 cells [7]): ineffective
- subacute toxicity, reduced cell viability (U-2OS/DX580 cells [9]): ineffective
- acute toxicity, release of LDH (MDA-MB-231 cells [11]): devoid of any cytotoxic effects
- acute toxicity, release of LDH (U-2OS cells [12]): comparable
- acute toxicity, release of LDH (U-2OS/DX580 cells [13]): devoid of any cytotoxic effects
- acute toxicity, release of LDH (MCF-7 cells [14]): comparable
- acute toxicity, release of LDH (K7M2 cells [17]): devoid of any cytotoxic effects
- acute toxicity, release of LDH (JC cells [18]): devoid of any cytotoxic effects
